Literature values, collected in patent US6339063B1, “9a-azalides as veterinary antimicrobial agents” (Merck & Co., Inc., priority 1997, dated 2002).

Test system: Pasteurella multocida
Settings: as said in U.S. Pat. Nos. 4,474,768, 4,464,527 and 4,526,889

| Structure (SMILES) | activity against Pasteurella multocida in vitro |
| --- | --- |
| CCC1OC(=O)C(C)C(OC2CC(C)(OC)C(O)C(C)O2)C(C)C(OC2OC(C)CC(N(C)C)C2O)C(C)(O)CC(C)CN(C)C(C)C(O)C1(C)O (stereo not drawn) [4″-epi-azithromycin] | active |
| CC[C@H]1OC(=O)[C@H](C)[C@@H](O[C@H]2C[C@@](C)(OC)[C@@H](O)[C@H](C)O2)[C@H](C)[C@@H](O[C@@H]2O[C@H](C)C[C@H](N(C)C)[C@H]2O)[C@](C)(O)C[C@@H](C)CN(C)[C@H](C)[C@@H](O)[C@]1(C)O [azithromycin, 9-deoxo-9a-aza-9a-methyl-9a-homoerythromycin A] | active |
